Drawing on ChEMBL document CHEMBL5465560, “Selectivity Literature for EUbOPEN Chemogenomic Library” (2024), this text covers % of control, % binding and % of inhibition for four compounds.

The target in assay [1] is Ribosomal protein S6 kinase alpha-2 (Homo sapiens) (UniProt Q15349). The assay can be described thus: Selectivity interaction (KinomeScan (DiscoverX)) EUB0000655a RPS6KA2. To be noted: at 10 µM.
For assay [2], the target named is T1, Ephrin type-A receptor 3 (Homo sapiens) (UniProt P29320).
T1 sequence (whole entry): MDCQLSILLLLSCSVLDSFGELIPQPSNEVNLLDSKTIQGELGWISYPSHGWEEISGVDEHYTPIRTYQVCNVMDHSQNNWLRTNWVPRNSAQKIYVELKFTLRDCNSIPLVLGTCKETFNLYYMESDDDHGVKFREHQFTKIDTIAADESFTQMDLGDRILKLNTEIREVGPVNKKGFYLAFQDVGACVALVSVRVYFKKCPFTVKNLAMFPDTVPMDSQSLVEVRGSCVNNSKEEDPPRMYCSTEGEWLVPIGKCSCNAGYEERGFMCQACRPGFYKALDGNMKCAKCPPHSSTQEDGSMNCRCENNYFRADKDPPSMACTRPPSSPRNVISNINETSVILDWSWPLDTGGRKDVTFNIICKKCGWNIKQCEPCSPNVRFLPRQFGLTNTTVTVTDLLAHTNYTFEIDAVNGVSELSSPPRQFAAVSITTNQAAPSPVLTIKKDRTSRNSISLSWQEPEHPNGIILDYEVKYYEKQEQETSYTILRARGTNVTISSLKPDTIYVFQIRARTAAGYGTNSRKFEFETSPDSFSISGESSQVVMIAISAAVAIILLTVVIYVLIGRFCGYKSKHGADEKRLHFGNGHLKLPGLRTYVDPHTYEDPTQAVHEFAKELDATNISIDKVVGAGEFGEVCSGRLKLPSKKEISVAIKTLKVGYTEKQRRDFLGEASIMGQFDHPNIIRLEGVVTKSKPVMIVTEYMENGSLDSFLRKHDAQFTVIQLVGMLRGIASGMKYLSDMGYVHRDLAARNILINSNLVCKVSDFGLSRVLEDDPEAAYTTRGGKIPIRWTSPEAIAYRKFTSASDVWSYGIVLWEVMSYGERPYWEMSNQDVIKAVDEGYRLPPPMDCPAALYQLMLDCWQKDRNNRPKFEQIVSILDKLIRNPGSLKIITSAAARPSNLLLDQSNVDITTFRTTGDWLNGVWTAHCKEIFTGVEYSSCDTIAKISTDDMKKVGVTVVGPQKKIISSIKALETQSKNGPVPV
Kind of assay: Selectivity interaction (KinomeScan (DiscoverX)) EUB0000229b EPHA3. To be noted: at 10 µM.

The target in assay [3] is T2, Cyclin-G-associated kinase (Homo sapiens) (UniProt O14976).
T2 sequence (whole entry): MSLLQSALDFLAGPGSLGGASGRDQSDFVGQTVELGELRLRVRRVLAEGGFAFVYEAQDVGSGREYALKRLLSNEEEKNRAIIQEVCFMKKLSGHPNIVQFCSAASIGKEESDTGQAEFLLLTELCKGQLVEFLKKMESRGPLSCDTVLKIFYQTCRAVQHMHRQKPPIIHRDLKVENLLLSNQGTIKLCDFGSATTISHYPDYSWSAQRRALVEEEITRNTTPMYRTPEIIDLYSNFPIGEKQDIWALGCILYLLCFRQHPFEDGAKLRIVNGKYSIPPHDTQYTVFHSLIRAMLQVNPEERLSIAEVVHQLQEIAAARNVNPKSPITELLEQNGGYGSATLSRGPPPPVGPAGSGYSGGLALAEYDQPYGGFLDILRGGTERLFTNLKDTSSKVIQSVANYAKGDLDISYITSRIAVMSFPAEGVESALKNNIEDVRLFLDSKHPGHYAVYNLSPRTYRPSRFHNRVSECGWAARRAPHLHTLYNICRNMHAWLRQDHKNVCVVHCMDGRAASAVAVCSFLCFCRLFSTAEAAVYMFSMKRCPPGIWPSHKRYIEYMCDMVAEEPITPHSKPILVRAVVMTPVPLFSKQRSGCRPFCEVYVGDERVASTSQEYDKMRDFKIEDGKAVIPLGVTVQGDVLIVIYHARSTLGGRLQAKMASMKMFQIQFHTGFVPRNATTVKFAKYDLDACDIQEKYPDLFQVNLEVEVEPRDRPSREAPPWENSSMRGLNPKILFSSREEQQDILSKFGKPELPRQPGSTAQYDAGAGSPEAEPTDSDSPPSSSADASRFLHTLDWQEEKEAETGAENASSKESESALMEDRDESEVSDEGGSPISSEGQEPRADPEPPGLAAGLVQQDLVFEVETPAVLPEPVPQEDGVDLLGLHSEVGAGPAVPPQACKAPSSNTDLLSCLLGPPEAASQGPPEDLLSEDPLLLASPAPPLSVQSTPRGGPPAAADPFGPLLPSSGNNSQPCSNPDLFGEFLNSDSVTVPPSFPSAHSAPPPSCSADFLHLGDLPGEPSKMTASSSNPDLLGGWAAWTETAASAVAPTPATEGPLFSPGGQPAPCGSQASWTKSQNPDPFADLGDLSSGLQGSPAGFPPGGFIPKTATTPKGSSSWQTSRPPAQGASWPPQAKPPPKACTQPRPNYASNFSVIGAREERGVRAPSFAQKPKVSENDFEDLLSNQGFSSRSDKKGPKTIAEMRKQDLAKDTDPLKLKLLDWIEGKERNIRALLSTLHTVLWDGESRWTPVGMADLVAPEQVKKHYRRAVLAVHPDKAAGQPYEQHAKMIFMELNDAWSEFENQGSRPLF
Kind of assay: Selectivity interaction (KinomeScan (DiscoverX)) EUB0001619a GAK. To be noted: at 1 µM.

Assay [4] concerns the target 5'-AMP-activated protein kinase catalytic subunit alpha-1 (Homo sapiens, UniProt Q13131). Kind of assay: Selectivity interaction (ActivX KiNativ screen (ex vivo kinase selectivity in human PBMCs)) EUB0001619a PRKAA1. It is filed as cell-based. To be noted: PBMC, at 1 µM.
For assay [5], the target named is 5-hydroxytryptamine receptor 2A (Homo sapiens, UniProt P28223). Kind of assay: Selectivity interaction (Safety Panel 44tm (Eurofins)) EUB0000162b HTR2A. To be noted: at 10 µM.
5-hydroxytryptamine receptor 2A, sequence (P28223 whole entry): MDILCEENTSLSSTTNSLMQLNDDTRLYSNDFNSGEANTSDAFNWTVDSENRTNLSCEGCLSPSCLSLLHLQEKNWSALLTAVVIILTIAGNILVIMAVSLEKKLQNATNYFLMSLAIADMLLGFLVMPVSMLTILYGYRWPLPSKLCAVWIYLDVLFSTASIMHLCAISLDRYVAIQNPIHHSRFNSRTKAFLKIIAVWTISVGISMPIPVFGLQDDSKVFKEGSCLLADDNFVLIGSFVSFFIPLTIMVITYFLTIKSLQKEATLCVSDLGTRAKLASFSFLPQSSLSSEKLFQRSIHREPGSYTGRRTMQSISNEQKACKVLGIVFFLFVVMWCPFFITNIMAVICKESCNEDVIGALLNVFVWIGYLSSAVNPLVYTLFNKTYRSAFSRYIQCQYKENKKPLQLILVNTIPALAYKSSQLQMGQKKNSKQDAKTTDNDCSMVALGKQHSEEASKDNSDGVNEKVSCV

Structures are written as SMILES.

Ribosomal protein S6 kinase alpha-2 (Homo sapiens), sequence (Q15349 whole entry): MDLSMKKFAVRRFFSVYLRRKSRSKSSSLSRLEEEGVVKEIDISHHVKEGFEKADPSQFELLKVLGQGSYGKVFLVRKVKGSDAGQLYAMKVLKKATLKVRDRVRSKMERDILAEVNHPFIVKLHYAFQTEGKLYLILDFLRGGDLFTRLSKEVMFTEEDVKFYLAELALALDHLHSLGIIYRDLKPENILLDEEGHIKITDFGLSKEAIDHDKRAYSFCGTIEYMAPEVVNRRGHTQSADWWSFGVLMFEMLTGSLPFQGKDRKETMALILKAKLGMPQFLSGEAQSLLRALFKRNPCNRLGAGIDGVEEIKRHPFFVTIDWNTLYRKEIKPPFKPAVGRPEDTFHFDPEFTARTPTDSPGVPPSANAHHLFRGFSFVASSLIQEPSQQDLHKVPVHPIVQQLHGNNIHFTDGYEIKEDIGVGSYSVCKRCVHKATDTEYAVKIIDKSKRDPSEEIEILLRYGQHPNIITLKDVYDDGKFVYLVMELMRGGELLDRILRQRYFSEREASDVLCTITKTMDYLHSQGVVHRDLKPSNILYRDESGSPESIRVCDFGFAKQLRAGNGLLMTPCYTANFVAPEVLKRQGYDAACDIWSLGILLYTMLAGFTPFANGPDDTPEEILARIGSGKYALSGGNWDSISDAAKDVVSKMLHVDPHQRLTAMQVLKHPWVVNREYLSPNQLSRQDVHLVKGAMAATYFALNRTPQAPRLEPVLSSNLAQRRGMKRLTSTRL
5'-AMP-activated protein kinase catalytic subunit alpha-1, sequence (Q13131 whole entry, looked up): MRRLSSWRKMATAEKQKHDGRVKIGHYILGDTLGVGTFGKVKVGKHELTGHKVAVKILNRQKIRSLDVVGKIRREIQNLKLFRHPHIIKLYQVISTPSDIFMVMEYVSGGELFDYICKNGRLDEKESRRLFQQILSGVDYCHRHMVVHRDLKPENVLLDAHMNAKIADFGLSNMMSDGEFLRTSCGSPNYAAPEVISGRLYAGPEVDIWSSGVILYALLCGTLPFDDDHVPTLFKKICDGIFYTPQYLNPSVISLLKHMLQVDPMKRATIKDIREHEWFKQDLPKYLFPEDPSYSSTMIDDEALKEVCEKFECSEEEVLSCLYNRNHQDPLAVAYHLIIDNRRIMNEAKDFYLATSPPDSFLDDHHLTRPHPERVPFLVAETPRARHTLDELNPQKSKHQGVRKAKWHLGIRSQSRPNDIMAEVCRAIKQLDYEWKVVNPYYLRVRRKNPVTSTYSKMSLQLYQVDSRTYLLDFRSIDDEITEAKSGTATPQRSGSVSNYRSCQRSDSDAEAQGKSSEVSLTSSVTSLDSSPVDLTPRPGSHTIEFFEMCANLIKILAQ

Turning to `CN(C)CCOc1ccc(-c2nc(-c3ccncc3)c(-c3ccc4c(c3)CC/C4=N\O)[nH]2)cc1`, the % of control in assay [1] came to 100%.
Turning to `COc1cc(N(C)c2ccnc3ccc(C(F)(F)F)cc23)cc(OC)c1OC`, the % binding in assay [2] was found to be 93%.
In turn, `N#Cc1cccc(-c2c[nH]c3ncnc(N4CCOCC4)c23)c1` showed a % of control in assay [3] of 100%. In assay [4], the % of inhibition came to 27%.
Consider `CN(C)C(=O)Cn1cc(-c2ccc(-c3cncc4ccccc34)cc2)cn1`, for which, in assay [5], the % of control was 87%.
